Measured values from PubChem BioAssay AID1963422 (Molecular Pharmacology Branch, DTP, NCI, 2024).
Where “and” joins values, the source holds several entries; their conditions need not be identical. Equal values may be shown once.

Test system: 463943-066-T-J2-PDC complex spheroid growth
Experiment: Anticancer human tumor 463943-066-T-J2-PDC patient-derived colon adenocarcinoma cell line growth inhibition [Asc]
Conditions: for viability, T/C: stronger effect = lower value; active = viability on the fitted dose curve at most 10% of control; inactive = the rest
How it was run: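 Concentration series start at each agent's clinical Cmax, or at 10 microM when none is established, and drop in half-log steps; agents are applied alone or together to complex spheroids built with HUVEC and hMSC.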

[1] = curve of first compound, second compound 0.00316 µM
[2] = curve of first compound, second compound 0.01 µM
[3] = curve of first compound, second compound 0.0316 µM
[4] = curve of first compound, second compound 0.1 µM
[5] = curve of first compound, second compound 0.316 µM
[6] = curve of first compound, second compound 1 µM
[7] = second compound 0.00316 µM, first compound 0.0316 µM
[8] = second compound 0.00316 µM, first compound 0.1 µM
[9] = second compound 0.00316 µM, first compound 0.316 µM
[10] = second compound 0.00316 µM, first compound 1 µM
[11] = second compound 0.00316 µM, first compound 3.16 µM
[12] = second compound 0.00316 µM, first compound 10 µM
[13] = second compound 0.01 µM, first compound 0.0316 µM
[14] = second compound 0.01 µM, first compound 0.1 µM
[15] = second compound 0.01 µM, first compound 0.316 µM
[16] = second compound 0.01 µM, first compound 1 µM
[17] = second compound 0.01 µM, first compound 3.16 µM
[18] = second compound 0.01 µM, first compound 10 µM
[19] = second compound 0.0316 µM, first compound 0.0316 µM
[20] = second compound 0.0316 µM, first compound 0.1 µM
[21] = second compound 0.0316 µM, first compound 0.316 µM
[22] = second compound 0.0316 µM, first compound 1 µM
[23] = second compound 0.0316 µM, first compound 3.16 µM
[24] = second compound 0.0316 µM, first compound 10 µM
[25] = second compound 0.1 µM, first compound 0.0316 µM
[26] = second compound 0.1 µM, first compound 0.1 µM
[27] = second compound 0.1 µM, first compound 0.316 µM
[28] = second compound 0.1 µM, first compound 1 µM
[29] = second compound 0.1 µM, first compound 3.16 µM
[30] = second compound 0.1 µM, first compound 10 µM
[31] = second compound 0.316 µM, first compound 0.0316 µM
[32] = second compound 0.316 µM, first compound 0.1 µM
[33] = second compound 0.316 µM, first compound 0.316 µM
[34] = second compound 0.316 µM, first compound 1 µM
[35] = second compound 0.316 µM, first compound 3.16 µM
[36] = second compound 0.316 µM, first compound 10 µM
[37] = second compound 1 µM, first compound 0.0316 µM
[38] = second compound 1 µM, first compound 0.1 µM
[39] = second compound 1 µM, first compound 0.316 µM
[40] = second compound 1 µM, first compound 1 µM
[41] = second compound 1 µM, first compound 3.16 µM
[42] = second compound 1 µM, first compound 10 µM
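Also: compound exposure lasted 7 days.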
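For viability, T/C in this document: 100% = DMSO vehicle control wells.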

C#Cc1c(F)ccc2cc(O)cc(-c3ncc4c(N5CC6CCC(C5)N6)nc(OCC56CCCN5CC(F)C6)nc4c3F)c12 (configuration not stated) + CNC(C)C(=O)NC1CN(S(=O)(=O)c2cccc(S(=O)(=O)N3CCC4CCC(C(=O)NC(c5ccccc5)c5ccccc5)N4C(=O)C(NC(=O)C(C)NC)C3)c2)CCC2CCC(C(=O)NC(c3ccccc3)c3ccccc3)N2C1=O
inactive: viability, T/C [7] 105% | viability, T/C [8] 103% | viability, T/C [9] 94.3% | viability, T/C [10] 123% | viability, T/C [11] 94% | viability, T/C [12] 99.5% | viability, T/C [13] 101% | viability, T/C [14] 99.9% | viability, T/C [15] 97.4% | viability, T/C [16] 102% | viability, T/C [17] 99.3% | viability, T/C [18] 101% | viability, T/C [19] 102% | viability, T/C [20] 101% | viability, T/C [21] 94.3% | viability, T/C [22] 103% | viability, T/C [23] 100% | viability, T/C [24] 91.3% | viability, T/C [25] 109% | viability, T/C [26] 92% | viability, T/C [27] 98% | viability, T/C [28] 94.6% | viability, T/C [29] 101% | viability, T/C [30] 85.7% | viability, T/C [31] 88% | viability, T/C [32] 94.2% | viability, T/C [33] 89.6% | viability, T/C [34] 93.3% | viability, T/C [35] 100% | viability, T/C [36] 81.8% | viability, T/C [37] 90.7% | viability, T/C [38] 85.6% | viability, T/C [39] 80.8% | viability, T/C [40] 87.7% | viability, T/C [41] 85.6% | viability, T/C [42] 72%
> 10 µM: IC50 [1] | IC50 [2] | IC50 [3] | IC50 [4] | IC50 [5] | IC50 [6]

Cc1nc(N2CCC3(CC2)COC(C)C3N)c(CO)nc1Sc1ccnc(N)c1Cl (configuration not stated) + Cc1c(S(C)(=O)=O)c(-c2cc(F)cc(N3CCN(c4ccc(NS(=O)(=O)c5ccc(NC(CCN6CCC(C(=O)OCCCP(=O)(O)O)CC6)CSc6ccccc6)c(S(=O)(=O)C(F)(F)F)c5)cc4)CC3)c2)c(-c2ccc(Cl)cc2)n1C(C)C
< 0.00949 µM: IC50 (curve of first compound, second compound 10 µM)
> 3 µM: IC50 [3] | IC50 [4] | IC50 [5] | IC50 [6]
inactive: viability, T/C (second compound 0.0316 µM, first compound 0.00949 µM) 106% | viability, T/C (second compound 0.0316 µM, first compound 0.03 µM) 86.8% | viability, T/C (second compound 0.0316 µM, first compound 0.0949 µM) 87.3% | viability, T/C (second compound 0.0316 µM, first compound 0.3 µM) 87.3% | viability, T/C (second compound 0.0316 µM, first compound 0.949 µM) 77.8% | viability, T/C (second compound 0.0316 µM, first compound 3 µM) 63.9% | viability, T/C (second compound 0.1 µM, first compound 0.00949 µM) 93.1% | viability, T/C (second compound 0.1 µM, first compound 0.03 µM) 87.2% | viability, T/C (second compound 0.1 µM, first compound 0.0949 µM) 90.7% | viability, T/C (second compound 0.1 µM, first compound 0.3 µM) 82.4% | viability, T/C (second compound 0.1 µM, first compound 0.949 µM) 75.1% | viability, T/C (second compound 0.1 µM, first compound 3 µM) 58.1% | viability, T/C (second compound 0.316 µM, first compound 0.00949 µM) 84% | viability, T/C (second compound 0.316 µM, first compound 0.03 µM) 85.1% | viability, T/C (second compound 0.316 µM, first compound 0.0949 µM) 78.5% | viability, T/C (second compound 0.316 µM, first compound 0.3 µM) 71.1% | viability, T/C (second compound 0.316 µM, first compound 0.949 µM) 65.8% | viability, T/C (second compound 0.316 µM, first compound 3 µM) 52.4% | viability, T/C (second compound 1 µM, first compound 0.00949 µM) 77.2% | viability, T/C (second compound 1 µM, first compound 0.03 µM) 73.7% | viability, T/C (second compound 1 µM, first compound 0.0949 µM) 66% | viability, T/C (second compound 1 µM, first compound 0.3 µM) 67.6% | viability, T/C (second compound 1 µM, first compound 0.949 µM) 64.9% | viability, T/C (second compound 1 µM, first compound 3 µM) 50.7% | viability, T/C (second compound 3.16 µM, first compound 0.00949 µM) 57% | viability, T/C (second compound 3.16 µM, first compound 0.03 µM) 58.5% | viability, T/C (second compound 3.16 µM, first compound 0.0949 µM) 51% | viability, T/C (second compound 3.16 µM, first compound 0.3 µM) 49.2% | viability, T/C (second compound 3.16 µM, first compound 0.949 µM) 41.4% | viability, T/C (second compound 3.16 µM, first compound 3 µM) 36.5% | viability, T/C (second compound 10 µM, first compound 0.00949 µM) 48.7% | viability, T/C (second compound 10 µM, first compound 0.03 µM) 44.8% | viability, T/C (second compound 10 µM, first compound 0.0949 µM) 41.4% | viability, T/C (second compound 10 µM, first compound 0.3 µM) 39.4% | viability, T/C (second compound 10 µM, first compound 0.949 µM) 35.9% | viability, T/C (second compound 10 µM, first compound 3 µM) 27.6%
0.185 µM: IC50 (curve of first compound, second compound 3.16 µM)

Cn1ncnc1[C@H]1c2n[nH]c(=O)c3cc(F)cc(c23)N[C@@H]1c1ccc(F)cc1
> 0.1 µM: IC50 (curve of compound)
inactive: viability, T/C (compound 0.000316 µM) 98.9% and 88% and 106% | viability, T/C (compound 0.001 µM) 91.2% and 98.6% and 99.5% | viability, T/C (compound 0.00316 µM) 103% and 107% and 104% | viability, T/C (compound 0.01 µM) 96.4% and 102% (2×) | viability, T/C (compound 0.0316 µM) 102% and 103% (2×) | viability, T/C (compound 0.1 µM) 99.3% and 97.9% and 94%

Cc1nc(N2CCC3(CC2)COC(C)C3N)c(CO)nc1Sc1ccnc(N)c1Cl (configuration not stated)
inactive: viability, T/C (compound 0.00949 µM) 97.7% and 107% (2×) | viability, T/C (compound 0.03 µM) 88.5% and 90.2% and 90.5% | viability, T/C (compound 0.0949 µM) 86.5% and 88.5% and 79.4% | viability, T/C (compound 0.3 µM) 87.4% and 87% and 82% | viability, T/C (compound 0.949 µM) 87% and 81.9% and 80.6% | viability, T/C (compound 3 µM) 70.8% (2×) and 71.8%
> 3 µM: IC50 (curve of compound)

C#Cc1c(F)ccc2cc(O)cc(-c3ncc4c(N5CC6CCC(C5)N6)nc(OCC56CCCN5CC(F)C6)nc4c3F)c12 (configuration not stated)
inactive: viability, T/C (compound 0.0316 µM) 103% and 101% and 90.9% | viability, T/C (compound 0.1 µM) 88.8% and 94.5% and 88.5% | viability, T/C (compound 0.316 µM) 100% and 104% and 103% | viability, T/C (compound 1 µM) 109% and 104% and 115% | viability, T/C (compound 3.16 µM) 105% and 100% (2×) | viability, T/C (compound 10 µM) 96.9% and 95.9% and 104%
> 10 µM: IC50 (curve of compound)

O=C(c1cc(Cc2n[nH]c(=O)c3ccccc23)ccc1F)N1CCN(C(=O)C2CC2)CC1 + CNC(C)C(=O)NC1CN(S(=O)(=O)c2cccc(S(=O)(=O)N3CCC4CCC(C(=O)NC(c5ccccc5)c5ccccc5)N4C(=O)C(NC(=O)C(C)NC)C3)c2)CCC2CCC(C(=O)NC(c3ccccc3)c3ccccc3)N2C1=O
inactive: viability, T/C [7] 91.4% | viability, T/C [8] 95.9% | viability, T/C [9] 96.9% | viability, T/C [10] 103% | viability, T/C [11] 89.4% | viability, T/C [12] 86.2% | viability, T/C [13] 94.1% | viability, T/C [14] 87.5% | viability, T/C [15] 91.9% | viability, T/C [16] 97.5% | viability, T/C [17] 110% | viability, T/C [18] 87.6% | viability, T/C [19] 98.1% | viability, T/C [20] 100% | viability, T/C [21] 97.4% | viability, T/C [22] 99.2% | viability, T/C [23] 92.8% | viability, T/C [24] 82.9% | viability, T/C [25] 106% | viability, T/C [26] 93.3% | viability, T/C [27] 90.6% | viability, T/C [28] 95.8% | viability, T/C [29] 91.3% | viability, T/C [30] 86.2% | viability, T/C [31] 90.9% | viability, T/C [32] 91.8% | viability, T/C [33] 85.1% | viability, T/C [34] 98.1% | viability, T/C [35] 87.2% | viability, T/C [36] 91.3% | viability, T/C [37] 90.5% | viability, T/C [38] 95% | viability, T/C [39] 84.4% | viability, T/C [40] 89.7% | viability, T/C [41] 85.9% | viability, T/C [42] 80.9%
> 10 µM: IC50 [1] | IC50 [2] | IC50 [3] | IC50 [4] | IC50 [5] | IC50 [6]
